According to article PMC5382172 (Frontiers in Molecular Neuroscience, 2017):
Values joined by “and” are separate entries in the source; they are usually repeats but may differ in a detail not shown here. Equal values may be shown once.

Key:
[1] = target: T1, GluClαP192M/βWT receptor (Caenorhabditis elegans, UniProt G5EBR3+Q17328, P192M); assay: Whole-cell patch clamp in CHO cells, GluClαP192M/βWT receptor; assay type: cell-based; details: 500 nM IVM, -60 mV
T1 construct: entry codes of the full-length subunits used in this study; expressed in transfected cells; host or cells: CHO cells, transient co-transfection 1:1, pcDNA3.1
Procedure: (§1) Chinese hamster ovary (CHO) cells were cultured as previously (Bar-Lev et al., [2011]) in Dulbecco’s Modified Eagle Medium (DMEM) containing 10% fetal calf serum, 2 mM glutamax, 100 Units/ml penicillin G and 100 μg/ml streptomycin, and grown in 5% CO2 at 37°C under 90%–95% humidity. The cells were seeded on glass coverslips (13-mm diameter) placed in a 24-multiwell plate. […] For the expression of GluCl receptors, cells were transiently co-transfected with pcDNA3.1 plasmids containing the ORFs of interest using transit-LT1 transfection reagent (Mirus, Madison, WI, USA), according to the manufacturer’s protocol. The cDNAs encoding the C. elegans GluClα (GLC-1) or its mutated versions and the GluClβ (GLC-2) subunits (200–600 ng per well) were used at 1:1 ratio. The pIRES-CD8 plasmid (200 ng per well) was added to enable the visualization of the expressing cells by beads coated with anti-CD8 antibodies (Invitrogen). […]
(§2) Whole-cell patch clamp recordings were performed as described previously (Bar-Lev et al., [2011]) in CHO cells that were prepared as detailed above. […] The currents were measured with an Axopatch 200B patch-clamp amplifier (Molecular Devices, Sunnyvale, CA, USA) and a Digidata 1440A interface (Molecular Devices). […]

[2] = target: T2, GluClαP192E/βWT receptor (Caenorhabditis elegans, UniProt G5EBR3+Q17328, P192E); assay: Whole-cell patch clamp in CHO cells, GluClαP192E/βWT receptor; assay type: cell-based; details: 500 nM IVM, -60 mV
T2 construct: entry codes of the full-length subunits used in this study; expressed in transfected cells; host or cells: CHO cells, transient co-transfection 1:1, pcDNA3.1
Procedure: as §1, §2

[3] = test system: wild type GluClα/βR; set-up: method as in Cully et al., [1994]; details: 5 nM IVM, Xenopus oocytes; ref Cully et al., [1994]; cited from earlier work
[4] = target: T3, GluClαWT/βWT receptor (Caenorhabditis elegans, UniProt G5EBR3+Q17328); assay: Whole-cell patch clamp in CHO cells, GluClαWT/βWT receptor; assay type: cell-based
T3 construct: entry codes of the full-length subunits used in this study; expressed in transfected cells; host or cells: CHO cells, transient co-transfection 1:1, pcDNA3.1
T3 sequence (G5EBR3 21-461): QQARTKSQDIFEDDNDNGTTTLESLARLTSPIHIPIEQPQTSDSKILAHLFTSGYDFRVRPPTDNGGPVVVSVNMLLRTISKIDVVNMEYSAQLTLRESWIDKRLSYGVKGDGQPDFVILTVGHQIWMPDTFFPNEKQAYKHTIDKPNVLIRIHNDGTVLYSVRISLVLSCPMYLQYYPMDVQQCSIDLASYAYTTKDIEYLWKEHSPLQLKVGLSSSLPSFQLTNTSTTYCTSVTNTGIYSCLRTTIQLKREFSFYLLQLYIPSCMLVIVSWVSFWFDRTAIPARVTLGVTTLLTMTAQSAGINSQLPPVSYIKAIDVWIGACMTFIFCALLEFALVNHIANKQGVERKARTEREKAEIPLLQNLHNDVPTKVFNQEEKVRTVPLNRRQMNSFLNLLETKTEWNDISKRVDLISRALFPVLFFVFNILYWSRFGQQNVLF
T3 sequence (Q17328 23-434): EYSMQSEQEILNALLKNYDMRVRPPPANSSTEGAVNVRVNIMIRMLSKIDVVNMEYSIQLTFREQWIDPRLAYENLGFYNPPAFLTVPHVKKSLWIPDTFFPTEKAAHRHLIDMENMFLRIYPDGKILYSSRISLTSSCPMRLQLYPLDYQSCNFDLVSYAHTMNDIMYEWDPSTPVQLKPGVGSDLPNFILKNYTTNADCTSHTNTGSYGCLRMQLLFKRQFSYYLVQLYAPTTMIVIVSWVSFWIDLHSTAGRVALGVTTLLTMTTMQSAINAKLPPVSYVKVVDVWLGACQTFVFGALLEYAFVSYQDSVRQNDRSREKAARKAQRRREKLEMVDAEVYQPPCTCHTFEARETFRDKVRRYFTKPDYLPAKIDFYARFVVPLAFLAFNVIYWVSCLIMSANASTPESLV
Procedure: Chinese hamster ovary (CHO) cells were cultured as previously (Bar-Lev et al., [2011]) in Dulbecco’s Modified Eagle Medium (DMEM) containing 10% fetal calf serum, 2 mM glutamax, 100 Units/ml penicillin G and 100 μg/ml streptomycin, and grown in 5% CO2 at 37°C under 90%–95% humidity. The cells were seeded on glass coverslips (13-mm diameter) placed in a 24-multiwell plate. […] For the expression of GluCl receptors, cells were transiently co-transfected with pcDNA3.1 plasmids containing the ORFs of interest using transit-LT1 transfection reagent (Mirus, Madison, WI, USA), according to the manufacturer’s protocol. The cDNAs encoding the C. elegans GluClα (GLC-1) or its mutated versions and the GluClβ (GLC-2) subunits (200–600 ng per well) were used at 1:1 ratio. The pIRES-CD8 plasmid (200 ng per well) was added to enable the visualization of the expressing cells by beads coated with anti-CD8 antibodies (Invitrogen). For high-level expression of the GluClαF276A/βWT mutant receptor in experiments assigned to determine its IVM-EC50, we used the X-tremeGENE HP DNA Transfection Reagent (Roche Life Science). Recordings were performed 72–96 h following the transfection.
Whole-cell patch clamp recordings were performed as described previously (Bar-Lev et al., [2011]) in CHO cells that were prepared as detailed above. The normal external solution (NES) contained (in millimolar): 140 NaCl, 2.8 KCl, 2 CaCl2, 2 MgCl2, 10 glucose and 10 HEPES, adjusted to pH 7.35 with NaOH (310 mOsm/L). The pipette solution contained (in millimolar): 130 KCl, 4 MgCl2, 4 Na2ATP, 1 EGTA and 10 HEPES, adjusted to pH 7.35 with KOH (290 mOsm/L). The osmolarity of these solutions was maintained by adding sucrose. The electrode resistance was 6–10 MΩ when filled with the pipette solution. External solutions were applied onto the cell by using the VC-77SP fast-step system (Warner Instruments, Hamden, CT, USA) combined with N2 pressure of 3–4 psi to produce laminar flow of the external solution onto the patched cell. All measurements were performed at room temperature. The currents were measured with an Axopatch 200B patch-clamp amplifier (Molecular Devices, Sunnyvale, CA, USA) and a Digidata 1440A interface (Molecular Devices). Acquisition of recording data was performed at 2.5 kHz and recordings were low-pass filtered at 1 kHz, through a four-pole Bessel filter. The pClamp 10 software (Molecular Devices) was used for data acquisition. […] Five-hundred milliseconds after the application started (which is also after the current reached to its peak at −60 mV), the voltage was stepped from −60 mV to −80 mV for 50 ms followed by a 250-ms-long voltage ramp ranging from −80 mV to +80 mV.
Dose-response curves were fitted to the data points by a nonlinear regression using the Hill Equation 1,

[5] = target: T4, GluClαY194R/βWT receptor (Caenorhabditis elegans, UniProt G5EBR3+Q17328, Y194R); assay: Whole-cell patch clamp in CHO cells, GluClαY194R/βWT receptor; assay type: cell-based; details: 500 nM IVM, -60 mV
T4 construct: entry codes of the full-length subunits used in this study; expressed in transfected cells; host or cells: CHO cells, transient co-transfection 1:1, pcDNA3.1
Procedure: as §1, §2

[6] = cumulative IVM concentrations, -60 mV

T1 sequence (G5EBR3 21-461 P192M, one chain of several): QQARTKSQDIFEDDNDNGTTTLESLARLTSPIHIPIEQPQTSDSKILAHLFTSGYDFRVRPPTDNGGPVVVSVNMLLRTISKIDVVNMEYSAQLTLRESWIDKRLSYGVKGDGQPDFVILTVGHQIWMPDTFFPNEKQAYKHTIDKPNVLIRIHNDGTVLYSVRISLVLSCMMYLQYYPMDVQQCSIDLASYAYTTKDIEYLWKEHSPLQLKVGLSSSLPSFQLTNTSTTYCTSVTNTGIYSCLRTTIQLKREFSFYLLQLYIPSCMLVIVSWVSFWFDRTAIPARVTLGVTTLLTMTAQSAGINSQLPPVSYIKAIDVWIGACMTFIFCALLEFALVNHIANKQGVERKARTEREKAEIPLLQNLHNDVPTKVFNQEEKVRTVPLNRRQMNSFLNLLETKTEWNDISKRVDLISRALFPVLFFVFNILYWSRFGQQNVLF
T2 sequence (G5EBR3 21-461 P192E, one chain of several): as the sequence (G5EBR3 21-461 P192M, one chain of several) above, with M172E counted along it
T4 sequence (G5EBR3 21-461 Y194R, one chain of several): as the sequence (G5EBR3 21-461 P192M, one chain of several) above, with M172P, Y174R counted along it

Question: Which “IVM (500 nM) Amplitude” value [1] does the source give for `CC[C@H](C)[C@H]1O[C@]2(CC[C@@H]1C)C[C@@H]1C[C@@H](C/C=C(\C)[C@@H](O[C@H]3C[C@H](OC)[C@@H](O[C@H]4C[C@H](OC)[C@@H](O)[C@H](C)O4)[C@H](C)O3)[C@@H](C)/C=C/C=C3\CO[C@@H]4[C@H](O)C(C)=C[C@@H](C(=O)O1)[C@]34O)O2` [IVM, ivermectin] here?
Answer: 1.4 ± 0.2 nA

Question: And the “IVM (500 nM) Amplitude” value [2]?
Answer: 1.7 ± 0.3 nA

Question: What about the “potentiation of Glu-sensitive currents by IVM” value [3] of the same compound?
Answer: ~ 5 fold

Question: And the “Fold decrease in Glu-EC50 observed after pre-exposure to IVM” value ([4]; 7 nM IVM)?
Answer: ~ 5 fold and 5 fold

Question: What about the “fold-potentiation of Glu-elicited response by IVM” value ([4]; 0.3 mM Glu before and after exposure to 7 nM IVM) of the same compound?
Answer: ~ 6 fold and 5.9 ± 0.6 fold

Question: And the “IVM (500 nM) Amplitude” value ([4]; CHO cells, 500 nM IVM, -60 mV)?
Answer: 1.8 ± 0.1 nA

Question: And the EC50 [4, 6]?
Answer: 40 nM

Question: What about the “Hill coefficient of activation by IVM” value [4, 6] of the same compound?
Answer: 1.5 and 1.5 ± 0.2

Question: What about the “IVM (500 nM) Amplitude” value [5] of the same compound?
Answer: 2.1 ± 0.5 nA
